Results: patent publication US20220380310A1, “P2X7R ANTAGONISTS” (priority 2019, published 2022)

Biological target: T1, P2X7R (Homo sapiens, UniProt Q99572)
T1 construct: expressed in transfected cells; host or cells: HEK-293
T1 sequence (Q99572 1-595): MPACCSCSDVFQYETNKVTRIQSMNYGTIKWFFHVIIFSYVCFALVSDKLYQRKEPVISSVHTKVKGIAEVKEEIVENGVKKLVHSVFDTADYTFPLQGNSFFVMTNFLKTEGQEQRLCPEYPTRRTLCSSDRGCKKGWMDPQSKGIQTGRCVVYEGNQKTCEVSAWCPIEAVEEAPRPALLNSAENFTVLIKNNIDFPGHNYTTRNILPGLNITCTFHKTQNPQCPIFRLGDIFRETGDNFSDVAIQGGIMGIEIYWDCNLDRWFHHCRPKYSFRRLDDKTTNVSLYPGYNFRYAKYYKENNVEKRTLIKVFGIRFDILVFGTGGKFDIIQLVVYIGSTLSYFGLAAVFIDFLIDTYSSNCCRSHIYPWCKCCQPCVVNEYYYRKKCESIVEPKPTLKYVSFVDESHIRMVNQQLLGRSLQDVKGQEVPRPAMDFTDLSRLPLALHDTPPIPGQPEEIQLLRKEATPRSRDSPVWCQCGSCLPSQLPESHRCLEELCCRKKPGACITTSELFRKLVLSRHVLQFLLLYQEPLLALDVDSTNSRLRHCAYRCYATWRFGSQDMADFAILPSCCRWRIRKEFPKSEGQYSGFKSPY
Assay: Yo-Pro-1 uptake assay (Yo-Pro-1 Assay) in HEK-293 cells transiently transfected with P2X7R
Assay type: cell-based
Details: HEK293; compound at 5 μM; 30 μM bzATP stimulus; reading 1 hour after stimulation; transfected HEK-293 cells; read-out: Percentage of activity remains in the presence of the compound at 5 μM, P2X7R (Yo-Pro-1 Assay)
Source text: Yo-Pro-1 Iodide (Cat. No Y3603 from Fisher Scientific) is a fluorescent DNA-binding dye with a MW of 629 Da. This method is based upon the Yo-Pro-1 entrance to cells through the dilated or “large pore form” of P2X7R and its binding to intracellular DNA whereby it increases its fluorescence intensity (J. Pharmacol. Exp. Ther. 308, 1053-1061). The dye has an absorption spectrum compatible with excitation at 488 nm by argon laser sources and its emission wavelength is in the range of 515-575 nm. This Yo-Pro-1 uptake was measured in HEK-293 cells transiently transfected with P2X7R (J. Biol. Chem. 290, 7930-7942). In Brief, HEK-293 cells were seeded in growth medium at approximately 20,000 cells/well in a 96-well plate on day 1. Transfection was performed on day 2 using Lipofectamine 2000 with the P2X7R DNA plasmid at the concentration of 1.7 μg/ml. The transfection solution was replaced with the growth medium 4 hours later. Fluorescent assays were conducted on day 4. On day 4, the medium was removed, the cells were washed with phosphate buffered saline (PBS) (Cat. No. MT21040CV from Fisher Scientific). Then, 25 μl of PBS were first loaded to each well followed by 25 μl of various test compounds. The third 25 μl of solution contained a mixture of Yo-Pro-1 and stimulus bzATP (2′(3′)-O-(4-Benzoylbenzoyl)adenosine-5′-triphosphate tri(triethylammonium) salt). The final concentration of Yo-Pro-1 was 2.5 μM and of bzATP 30 μM. Fluorescence increases were measured every 30 minutes in a microplate device with excitation at 475 nm and emission wavelength in the range of 500-550 nm. PPADS (Pyridoxalphosphate-6-azophenyl-2′,4′-disulfonic acid tetrasodium) was used as the positive control. The wells with no test compounds added nor bzATP and only containing PBS and Yo-Pro-1 were served as the negative control (N Contl). The positive control (P Contl) wells were the same as N Contl but contained the stimulus, bzATP in this case.
Data used for analysis were from microplate readings 1 hour after bzATP stimulation. The result of each well was first normalized by its corresponding base microplate reading. The base microplate reading was the first reading right after all components were added. Then, the negative control signal was subtracted from. In the negative control, the test compound and the stimulus were replaced by PBS. An average of six highest values of the plate (AVG) were considered as 100% and the value of each well was divided by AVG and presented as the relative values in percentages.
For comparison of the antagonistic effectiveness of the compounds of this invention among P2X receptors, assays were conducted at 5 μM. Among 55 compounds tested, 29 can reduce the P2X7R activity to […] of the normal activity (Table 2).

In order of falling remaining activity at 5 µM:
1. O=S(=O)(c1ccccc1)C1CN(S(=O)(=O)c2ccc(N3CCOCC3)cc2)C1 [#11]  80.9%
2. O=S(=O)(c1ccccc1)C1CN(S(=O)(=O)c2ccc(N3CCCCC3)cc2)C1 [#10]  70.1%
3. O=C(CCc1ccccc1)NC1CCCN(S(=O)(=O)c2ccc(OCc3ccccc3)cc2)C1 (stereo not drawn) [#4]  38.4%
4. CS(=O)(=O)c1ccc(N2CCCC(NC(=O)CCc3ccccc3)C2)cc1 (stereo not drawn) [#1]  20%
5. COc1ccc(S(=O)(=O)N2CCCC(NC(=O)CCc3ccccc3)C2)cc1 (stereo not drawn) [#2]  15.8%
6. CC(C)S(=O)(=O)c1ccc(N2CCCC(NC(=O)CCc3ccccc3)C2)cc1 (stereo not drawn) [#7]  14.1%
7. O=C(CCc1ccccc1)NC1CCCN(S(=O)(=O)c2ccc(F)cc2)C1 (stereo not drawn) [#3]  13.5%
8. CC(C)COc1ccc(S(=O)(=O)N2CCCC(NC(=O)CCc3ccccc3)C2)cc1 (stereo not drawn) [#6]  10.7%
9. O=C(CCc1ccccc1)NC1CCCN(S(=O)(=O)c2ccc(-n3cc(Br)cn3)cc2)C1 (stereo not drawn) [#9]  10.2%
10. O=C(CCc1ccccc1)NC1CCCN(S(=O)(=O)c2ccc(N3CCCCC3)cc2)C1 (stereo not drawn) [#5]  -7.3%
11. O=C(CCc1ccccc1)NC1CCCN(S(=O)(=O)Cc2ccc(Br)cc2)C1 (stereo not drawn) [#8]  -14.5%

Same assay, conditions: HEK-293 cells transiently transfected with P2X7R; 30 μM bzATP as stimulus; readings 1 hour after stimulation; estimated from dose-response curves

In order of falling IC50:
1. O=C(CCc1ccccc1)NC1CCCN(S(=O)(=O)c2ccc(-n3cc(Br)cn3)cc2)C1 (stereo not drawn) [#9]  16 µM
2. O=S(=O)(c1ccccc1)C1CN(S(=O)(=O)c2ccc(N3CCOCC3)cc2)C1 [#11]  9.9 µM
3. O=C(CCc1ccccc1)NC1CCCN(S(=O)(=O)c2ccc(OCc3ccccc3)cc2)C1 (stereo not drawn) [#4]  8.2 µM
4. CC(C)S(=O)(=O)c1ccc(N2CCCC(NC(=O)CCc3ccccc3)C2)cc1 (stereo not drawn) [#7]  6 µM
5. O=S(=O)(c1ccccc1)C1CN(S(=O)(=O)c2ccc(N3CCCCC3)cc2)C1 [#10]  5.9 µM
6. CS(=O)(=O)c1ccc(N2CCCC(NC(=O)CCc3ccccc3)C2)cc1 (stereo not drawn) [#1]  3.9 µM
7. O=C(CCc1ccccc1)NC1CCCN(S(=O)(=O)c2ccc(F)cc2)C1 (stereo not drawn) [#3]  3.2 µM
8. COc1ccc(S(=O)(=O)N2CCCC(NC(=O)CCc3ccccc3)C2)cc1 (stereo not drawn) [#2]  2.8 µM
9. CC(C)COc1ccc(S(=O)(=O)N2CCCC(NC(=O)CCc3ccccc3)C2)cc1 (stereo not drawn) [#6]  2.7 µM
10. O=C(CCc1ccccc1)NC1CCCN(S(=O)(=O)Cc2ccc(Br)cc2)C1 (stereo not drawn) [#8]  2.1 µM
11. O=C(CCc1ccccc1)NC1CCCN(S(=O)(=O)c2ccc(N3CCCCC3)cc2)C1 (stereo not drawn) [#5]  0.2 µM

Biological target: T2, P2X2R (Homo sapiens, UniProt Q9UBL9)
T2 construct: expressed in transfected cells; host or cells: HEK-293
T2 sequence (Q9UBL9 1-471): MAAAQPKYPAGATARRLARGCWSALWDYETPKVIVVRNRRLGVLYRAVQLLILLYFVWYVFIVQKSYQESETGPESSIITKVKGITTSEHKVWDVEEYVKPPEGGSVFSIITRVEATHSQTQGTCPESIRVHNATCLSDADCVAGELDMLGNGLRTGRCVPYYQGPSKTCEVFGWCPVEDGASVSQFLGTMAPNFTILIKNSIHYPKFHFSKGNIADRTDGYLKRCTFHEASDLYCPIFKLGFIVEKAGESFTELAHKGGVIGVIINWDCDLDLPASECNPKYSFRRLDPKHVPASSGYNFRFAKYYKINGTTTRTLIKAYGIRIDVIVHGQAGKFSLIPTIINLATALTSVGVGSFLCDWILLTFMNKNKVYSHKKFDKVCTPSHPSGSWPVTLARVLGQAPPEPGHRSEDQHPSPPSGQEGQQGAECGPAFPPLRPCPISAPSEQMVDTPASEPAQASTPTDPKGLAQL
Assay: Receptor-mediated calcium entrance assay (Calcium Assay), P2X2R
Assay type: cell-based
Details: compound at 5 μM, read-out: Percentage of activity remains in the presence of the compound at 5 μM, P2X2R (Calcium Assay)

In order of falling remaining activity at 5 µM:
1. O=C(CCc1ccccc1)NC1CCCN(S(=O)(=O)c2ccc(F)cc2)C1 (stereo not drawn) [#3]  98%
2. O=C(CCc1ccccc1)NC1CCCN(S(=O)(=O)Cc2ccc(Br)cc2)C1 (stereo not drawn) [#8]  94.6%
3. O=C(CCc1ccccc1)NC1CCCN(S(=O)(=O)c2ccc(N3CCCCC3)cc2)C1 (stereo not drawn) [#5]  87.8%
4. COc1ccc(S(=O)(=O)N2CCCC(NC(=O)CCc3ccccc3)C2)cc1 (stereo not drawn) [#2]  85.7%
5. O=C(CCc1ccccc1)NC1CCCN(S(=O)(=O)c2ccc(OCc3ccccc3)cc2)C1 (stereo not drawn) [#4]  83.7%
6. CC(C)S(=O)(=O)c1ccc(N2CCCC(NC(=O)CCc3ccccc3)C2)cc1 (stereo not drawn) [#7]  78.8%
7. O=S(=O)(c1ccccc1)C1CN(S(=O)(=O)c2ccc(N3CCCCC3)cc2)C1 [#10]  69.3%
8. CS(=O)(=O)c1ccc(N2CCCC(NC(=O)CCc3ccccc3)C2)cc1 (stereo not drawn) [#1]  61.3%
9. O=C(CCc1ccccc1)NC1CCCN(S(=O)(=O)c2ccc(-n3cc(Br)cn3)cc2)C1 (stereo not drawn) [#9]  61.3%
10. CC(C)COc1ccc(S(=O)(=O)N2CCCC(NC(=O)CCc3ccccc3)C2)cc1 (stereo not drawn) [#6]  55.2%
11. O=S(=O)(c1ccccc1)C1CN(S(=O)(=O)c2ccc(N3CCOCC3)cc2)C1 [#11]  52%
